Measurements published in patent US6207393A, “Inhibition of intracellular signal transduction by 14-3-3-binding peptides” (Washington University, priority 1999, dated 2001).
pIC50, pKd: −log10 of the molar value. Where two headings read alike, the source gives them in different places. Where a SMILES comes first, the peptide text is derived from it. [ ]: non-standard residue; d: D form. pS = N[C@@H](COP(=O)(O)O)C(=O)O

Key:
[1] = biological target: T1, 14-3-3 tau (Homo sapiens, UniProt P27348); test: SPR competitive inhibition of 14-3-3 tau binding to phosphorylated Raf-259 peptide; settings: isoform tau
T1 construct: made in house; host or cells: E. coli DH5α (vector pGEX-KT)
T1 sequence (P27348 1-245): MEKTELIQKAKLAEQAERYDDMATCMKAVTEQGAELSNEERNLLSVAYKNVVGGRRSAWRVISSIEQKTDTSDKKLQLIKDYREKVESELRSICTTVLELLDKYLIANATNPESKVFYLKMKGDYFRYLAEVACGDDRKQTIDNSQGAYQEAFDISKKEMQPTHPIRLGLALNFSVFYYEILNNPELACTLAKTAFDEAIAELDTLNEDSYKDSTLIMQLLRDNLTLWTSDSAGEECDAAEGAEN
Description: The ability of each peptide to inhibit binding of 14-3-3 zeta to the phosphorylated peptide was then tested in a range of concentrations between 1 and 50 μM. 14-3-3 zeta was prepared according to the methods in Example 1 and binding affinities and specificities were determined using the peptides in Table 2. The 14-3-3 zeta fusion proteins (0.5-1.0 μM) were pre-incubated with a given peptide at concentrations between 1 μM and 50 μM. 14-3-3 zeta was then infused across a sensor chip surface which had been previously coupled with the phosphorylated Raf-259 peptide (SEQ ID NO: 4). IC50 values were determined by plotting the concentration of competitor peptide required to achieve a 50% reduction in equilibrium binding.
(§1) There are seven known isoforms of 14-3-3 which form homo- and heterodimers in vivo. If different isoforms of 14-3-3 could bind to proteins with distinct specificities, heterodimeric forms of 14-3-3 might function as modular linker proteins, bringing together different proteins into a single complex. We were, therefore, interested in determining whether different 14-3-3 isoforms recognize phosphoserine in a sequence specific fashion. This hypothesis was tested by expressing and purifying three other 14-3-3 isoforms, eta, beta and tau, and measuring their affinity towards the panel of phosphorylated peptides generated above. Using the Surface Plasmon Resonance method, the "on" and "off" rates for 14-3-3 binding to the phosphorylated Raf-259 peptide were calculated (Table 6).
Competitive inhibition with the mutated phosphorylated Raf-1 peptides was used to determine whether their specificities were similar (Table 7). In each case, the calculated IC50 s were very similar to those calculated for 14-3-3 zeta.

[2] = biological target: T2, 14-3-3 eta (Homo sapiens, UniProt Q04917); test: Surface plasmon resonance kinetics, 14-3-3 eta binding to phosphorylated Raf-259 peptide; settings: isoform eta
T2 construct: made in house; host or cells: E. coli DH5α (vector pGEX-KT)
T2 sequence (Q04917 1-246): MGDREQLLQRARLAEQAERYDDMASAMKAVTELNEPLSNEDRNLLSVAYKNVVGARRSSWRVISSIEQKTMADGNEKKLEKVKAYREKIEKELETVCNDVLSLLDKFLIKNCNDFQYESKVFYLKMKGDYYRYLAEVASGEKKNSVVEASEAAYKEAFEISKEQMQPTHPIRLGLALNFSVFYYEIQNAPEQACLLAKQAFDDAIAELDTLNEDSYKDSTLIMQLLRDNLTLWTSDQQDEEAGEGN
Description: Because the surface plasmon resonance detects binding in real time, this method can be used to directly determine the rates of association (kon) and dissociation (koff). For these kinetic measurements, GST/14-3-3 fusion proteins were injected over a range of concentrations between 200 nM and 5 μM. The "on" rate, kon, was determined by calculating dR/dt for the initial linear portion of association using the Biaevaluation software (Pharmacia). Because ligand rebinding to the sensor chip can affect the "off" rate (koff, Panayotou et al. Mol Cell Biol 13:3567-76, 1993 which is incorporated by reference), we measured the "off" rate in the presence of 50 μM free ligand by using the coinject function of the Biacore. The "off" rate measured in the absence of 50 μM free ligand was approximately 10-fold lower.
as §1

[3] = biological target: T3, 14-3-3 zeta (Homo sapiens, UniProt P63104); test: Displacement of 32P-labeled phosphorylated Raf-259 peptide from immobilized GST/14-3-3 zeta (scintigraphy); assay type: binding
T3 construct: made in house; host or cells: E. coli DH5α (vector pGEX-KT)
T3 sequence (P63104 1-245): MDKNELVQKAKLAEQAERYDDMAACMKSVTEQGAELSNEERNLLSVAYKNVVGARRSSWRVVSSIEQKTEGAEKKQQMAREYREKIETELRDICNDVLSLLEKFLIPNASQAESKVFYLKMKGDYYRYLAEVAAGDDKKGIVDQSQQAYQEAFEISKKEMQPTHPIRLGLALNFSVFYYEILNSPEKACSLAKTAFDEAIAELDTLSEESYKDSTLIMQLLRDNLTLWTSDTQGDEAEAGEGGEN
Description: The 14-3-3 protein isoforms for use in binding studies with the above peptides were prepared as proteins fused with glutathione-S-transferase (GST) and immobilized to glutathione agarose beads. GST/14-3-3 fusion proteins were made by generating BamHI and EcoRI restriction endonuclease sites (underlined) at the 5' and 3' ends respectively of the 14-3-3 cDNAs by polymerase chain reaction (PCR) using the following isoform sequence specific pairs of primers: 14-3-3 beta, […] (SEQ ID NO: 11), […] (SEQ ID NO: 12); 14-3-3 eta […] (SEQ ID NO: 13), […] (SEQ ID NO: 14); 14-3-3 tau […] (SEQ ID NO: 15), […] (SEQ ID NO: 16); 14-3-3 zeta […] (SEQ ID NO: 17), […] (SEQ ID NO: 18). The cDNA products were digested with BamHI and EcoRI, subcloned into the vector pGEX-KT (Guan and Dixon, Anal Biochem 192: 262-7, 1991 which is incorporated by reference). The vector was used to transform the DH5α strain of E. Coli. GST-14-3-3 fusion protein expression in log-growth phase bacterial cultures was accomplished by induction with 100 μM isopropyl β-D-thiogalactopyranoside (IPTG; Gold Biotechnology, St. Louis) for 4 hours. Cells were disrupted by sonication and lysates, containing 1% Triton X-100, were incubated with glutathione agarose beads (Sigma, St. Louis) at 4° C. overnight. Fusion proteins were eluted by incubation with 10 mM reduced glutathione (Sigma, St. Louis) in phosphate buffered saline for 1 hour at room temperature, dialyzed in phosphate buffered saline and quantitated by Coomassie staining SDS polyacrylamine gels compared against bovine serum albumin standards.
The Raf-259 peptide (SEQ ID NO: 4) was phosphorylated in vitro using protein kinase A (PKA) and [^32 P]-γ-ATP following the manufacturers instruction (PKA, New England Biolabs) with 20 μCi of [^32 P]-γ-ATP (NEN-Dupont, 6000 Ci/mmol). The efficiency of phosphorylation was calculated to be between 7 and 12% based upon the specific activity of the labelled peptide.
The labeled peptide was then incubated with immobilized 14-3-3 zeta fusion protein and binding of the labelled peptide was measured. […] Binding was also sequence specific. […]

CC(C)C[C@H](N)C(=O)N[C@@H](CO)C(=O)N[C@@H](CCC(N)=O)C(=O)N[C@@H](CCCNC(=N)N)C(=O)N[C@@H](CCC(N)=O)C(=O)N[C@@H](CCCNC(=N)N)C(=O)N[C@@H](CO)C(=O)N[C@H](C(=O)N[C@@H](COP(=O)(O)O)C(=O)N[C@H](C(=O)N1CCC[C@H]1C(=O)N[C@@H](CC(N)=O)C(=O)N[C@H](C(=O)N[C@@H](Cc1c[nH]cn1)C(=O)N[C@@H](C)C(=O)O)C(C)C)[C@@H](C)O)[C@@H](C)O [pS-Raf-259] (H-LSQRQRST[pS]TPNVHA-OH)
pIC50 [1]: 5.30 | pKd [2]: 6.89 | koff [2]: 0.0029 s⁻¹ | kon [2]: 22600 M⁻¹ s⁻¹ | pIC50 ([3]; corrected for 7-12% efficiency of in vitro phosphorylation, read-out: true IC50): 6.62 to 7.15 | pIC50 ([3]; not corrected for efficiency of phosphorylation, read-out: IC50): 5.70 to 6.00
